Results from PMC7284870, “Antimicrobial Peptides from Rat-Tailed Maggots of the Drone Fly Eristalis tenax Show Potent Activity against Multidrug-Resistant Gram-Negative Bacteria” (Microorganisms, 2020).
Where two headings read alike, the source gives them in different places. No end group written: not given here.

Columns and labels:
S. aureus ATCC 33592 = type: cell-based, Staphylococcus aureus
Description: (§1) The strains that were used in this study (Table 2 and Table S1) were cultivated at 37 °C in cation-adjusted Mueller–Hinton broth (CAMB) in Erlenmeyer flasks, or on the same medium with agar in Petri dishes. Exceptionally, Mycobacterium smegmatis was cultivated at 37 °C in brain heart infusion (BHI) medium that was supplemented with 1% Tween-80 in Erlenmeyer flasks, or on the same medium lacking detergent but with agar in Petri dishes. Strains listed with Robert Koch Institute (RKI) strain numbers are clinical isolates from the RKI strain collection originating from hospitalized patients in Germany. The remaining strains originated from the Sanofi strain collection and they were originally purchased from the American Type Culture Collection or the German Collection of Microorganisms and Cell Cultures. Meropenem/colistin-resistant strains were maintained, as described above, with the appropriate antibiotic added at levels below the minimal inhibitory concentration (MIC).
(§2) The MIC values were determined in 384-well microtiter plates with an assay volume of 20 µL. Immediately before each assay, the cultures of test organisms (bacteria grown for 18 h, Candida albicans and M. smegmatis grown for 48 h) were diluted with the appropriate medium to a density of 1 × 10^6 cells/mL (C. albicans), 1 × 10^5 cells/mL (M. smegmatis) or 5 × 10^5 cells per mL (other species). […] We transferred 2-µL aliquots from this dilution series to new 384-well microtiter plates while using a CyBio-Well 384-channel automated pipettor (Analytic Jena, Jena, Germany) and added 18 µL of the diluted suspension of each test species using a Viafill reagent dispenser (Integra), thus reducing the final peptide concentration 10-fold to the range 1024–0.03125 µg/mL. […] The growth of M. smegmatis was measured using the BacTiter-Glo luminescence test system (Promega, Madison, WI, USA). The growth of the other species was determined by visual inspection of the microtiter plate and turbidimetry based on the optical density at 600 nm (OD600). The MIC was defined as the peptide concentration at which no bacterial growth was observed. We supplemented the test medium with either 150 mM NaCl or 1.25 mM CaCl2 to represent monovalent and divalent cations to simulate physiological conditions.

E. coli ATCC 25922 = system: E. coli ATCC 25922
Description: as §1
The MIC values were determined in 384-well microtiter plates with an assay volume of 20 µL. Immediately before each assay, the cultures of test organisms (bacteria grown for 18 h, Candida albicans and M. smegmatis grown for 48 h) were diluted with the appropriate medium to a density of 1 × 10^6 cells/mL (C. albicans), 1 × 10^5 cells/mL (M. smegmatis) or 5 × 10^5 cells per mL (other species). The peptides were dissolved in sterile water at a concentration of 10.24 mg/mL and a 1:2 dilution series was prepared in a 384-well microtiter plate to achieve the concentration range 10,240–0.3125 µg/mL in a volume of 50 µL. We transferred 2-µL aliquots from this dilution series to new 384-well microtiter plates while using a CyBio-Well 384-channel automated pipettor (Analytic Jena, Jena, Germany) and added 18 µL of the diluted suspension of each test species using a Viafill reagent dispenser (Integra), thus reducing the final peptide concentration 10-fold to the range 1024–0.03125 µg/mL. The cells were incubated at 37 °C and 85% relative humidity, shaking at 180 rpm for 48 h (M. smegmatis), 24 h (C. albicans) or 18 h (other species). The growth of M. smegmatis was measured using the BacTiter-Glo luminescence test system (Promega, Madison, WI, USA). The growth of the other species was determined by visual inspection of the microtiter plate and turbidimetry based on the optical density at 600 nm (OD600). […] We supplemented the test medium with either 150 mM NaCl or 1.25 mM CaCl2 to represent monovalent and divalent cations to simulate physiological conditions.

Canida albicans FH2173 = type: cell-based, Candida albicans; details: 24 h
Description: as §1, §2

E. coli RKI 131/08 = assay: microbe, parasite or virus in culture; type: cell-based, Escherichia coli
Description: as §1, §2

K. pneumoniae RKI 93/10 = assay: microbe, parasite or virus in culture; type: cell-based, Klebsiella pneumoniae
Description: as §1, §2

[1] = system: Enterobacter cloacae RKI 146/09; assay: microbe, parasite or virus in culture; type: cell-based
Description: as §1, §2

A. baumannii RKI 19/09 = assay: microbe, parasite or virus in culture; type: cell-based, Acinetobacter baumannii
Description: as §1, §2

[2] = system: Acinetobacter baumannii ATCC 19606; type: cell-based
Description: as §1, §2

[3] = system: Enterococcus faecium DSM 17050; type: cell-based
Description: as §1, §2

[4] = system: Klebsiella oxytoca RKI 52/07; type: cell-based
Description: as §1, §2

[5] = system: Klebsiella pneumoniae DSM 30104; type: cell-based
Description: as §1, §2

[6] = system: Listeria monocytogenes DSM 20600; type: cell-based
Description: as §1, §2

[7] = system: Mycobacterium smegmatis ATCC 607; type: cell-based
Description: as §1, §2

[8] = system: Proteus mirabilis DSM 4479; type: cell-based
Description: as §1, §2

[9] = system: Pseudomonas aeruginosa ATCC 27853; type: cell-based
Description: as §1, §2

[10] = system: Staphylococcus aureus ATCC 25923; type: cell-based
Description: as §1, §2

[11] = system: Staphylococcus epidermidis ATCC 35984; type: cell-based
Description: as §1, §2

E. coli RKI 6A-6 = assay: microbe, parasite or virus in culture; type: cell-based, Escherichia coli
Description: as §1, §2

K. pneumoniae RKI 268/15 = type: cell-based, Klebsiella pneumoniae
Description: as §1, §2

K. pneumoniae RKI 68/16 = type: cell-based, Klebsiella pneumoniae
Description: as §1, §2

Escherichia coli D31 = type: cell-based
Description: as §1, §2

[12] = system: Stenotrophomonas maltophilia RKI 136/09; type: cell-based; details: n=3
Description: as §1, §2

[13] = CAMB + 0.075 µg/mL colistin (Col), n=3
[14] = CAMB adjusted to 1.25 mM CaCl2, n=3
[15] = CAMB adjusted to 150 mM NaCl, n=3

For “GFLKKVGKKLEGASDLTRDATIQTIAVAQAAANVAATAKQG [EtCec3]”, the MIC (S. aureus ATCC 33592; ATCC 33592, 18 h) was >1024 µg/mL, the MIC (E. coli ATCC 25922; ATCC 25922, 18 h) was >1024 µg/mL and the MIC (Canida albicans FH2173) was >1024 µg/mL. For the same substance, the MIC (E. coli RKI 131/08; RKI 131/08, 18 h) was >1024 µg/mL, the MIC (K. pneumoniae RKI 93/10; RKI 93/10, 18 h) was >1024 µg/mL and the MIC ([1]; RKI 146/09, 18 h) was >1024 µg/mL. For the same substance, the MIC (A. baumannii RKI 19/09; RKI 19/09, 18 h) was >1024 µg/mL, the MIC ([2]; ATCC 19606, 18 h) was >1024 µg/mL and the MIC ([3]; DSM 17050, 18 h) was >1024 µg/mL. The MIC ([4]; 18 h) was >1024 µg/mL, the MIC ([5]; DSM 30104, 18 h) was >1024 µg/mL and the MIC ([6]; DSM 20600, 18 h) was >1024 µg/mL. The MIC ([7]; ATCC 607, 48 h) was >1024 µg/mL, the MIC ([8]; DSM 4479, 18 h) was >1024 µg/mL and the MIC ([9]; ATCC 27853, 18 h) was >1024 µg/mL. The MIC ([10]; ATCC 25923, 18 h) was >1024 µg/mL and the MIC ([11]; ATCC 35984, 18 h) was >1024 µg/mL.
For “GFLKKIGKKLEGAVQRTRDATIQTIAVAQAAANVAATAKQG [EtCec1]”, the MIC (S. aureus ATCC 33592; ATCC 33592, 18 h) was >1024 µg/mL, the MIC (E. coli ATCC 25922; ATCC 25922, 18 h) was 16 µg/mL and the MIC (Canida albicans FH2173) was >1024 µg/mL. For the same substance, the MIC (E. coli RKI 6A-6; RKI 6A-6, 18 h) was 32 µg/mL, the MIC (A. baumannii RKI 19/09; RKI 19/09, 18 h) was 16 µg/mL and the MIC (K. pneumoniae RKI 268/15; RKI 268/15, 18 h) was 64 µg/mL. For the same substance, the MIC (K. pneumoniae RKI 68/16; RKI 68/16, 18 h) was 64 µg/mL, the MIC ([3]; DSM 17050, 18 h) was >1024 µg/mL and the MIC (Escherichia coli D31; D31, 18 h) was 16 µg/mL. The MIC ([4]; 18 h) was 16 µg/mL, the MIC ([6]; DSM 20600, 18 h) was >1024 µg/mL and the MIC ([7]; ATCC 607, 48 h) was >1024 µg/mL. The MIC ([8]; DSM 4479, 18 h) was >1024 µg/mL, the MIC ([9]; ATCC 27853, 18 h) was 256 µg/mL and the MIC ([10]; ATCC 25923, 18 h) was >1024 µg/mL. For the same substance, the MIC ([11]; ATCC 35984, 18 h) was >1024 µg/mL.
Substance colistin [reference compound] has an MIC (E. coli ATCC 25922; Table 5, CAMB, n=3) of 0.5 µg/mL, an MIC (E. coli RKI 131/08; Table 5, CAMB, n=3) of 0.5 µg/mL and an MIC (K. pneumoniae RKI 93/10; Table 5, CAMB, n=3) of 1 µg/mL. The MIC ([1]; Table 5, CAMB, n=3) was 2 µg/mL, the MIC (A. baumannii RKI 19/09; Table 5, CAMB, n=3) was 0.5 µg/mL and the MIC ([2]; Table 5, CAMB, n=3) was 1 µg/mL. The MIC ([4]; Table 5, CAMB, n=3) was 2 µg/mL and the MIC ([5]; Table 5, CAMB, n=3) was 0.5 µg/mL.
“GWLRDFGKRIERTGQNIRDATIQTIGIAQEAANVAATLKG [EtCec2]” was tested, and the MIC (S. aureus ATCC 33592; CAMB, 18 h, 37 °C, n = 4) was >1024 µg/mL, the MIC (E. coli ATCC 25922; [13]) was 4 µg/mL and the MIC (E. coli ATCC 25922; [14]) was 128 µg/mL. The MIC (E. coli ATCC 25922; [15]) was 64 µg/mL, the MIC (E. coli ATCC 25922; CAMB, 18 h, 37 °C, n = 4) was 64 µg/mL and the MIC (E. coli ATCC 25922; Table 4, CAMB, n=3) was 64 µg/mL. The MIC (Canida albicans FH2173; CAMB, 37 °C, n = 4) was >1024 µg/mL, the MIC (E. coli RKI 131/08; [13]) was 2 µg/mL and the MIC (E. coli RKI 131/08; [14]) was 64 µg/mL. It also gave an MIC (E. coli RKI 131/08; [15]) of 32 µg/mL, an MIC (E. coli RKI 131/08; Table 4, CAMB, n=3) of 32 µg/mL and an MIC (E. coli RKI 6A-6; Table 4, CAMB, n=3) of 256 µg/mL. For the same substance, the MIC (K. pneumoniae RKI 93/10; [13]) was 16 µg/mL, the MIC (K. pneumoniae RKI 93/10; [14]) was 256 µg/mL and the MIC (K. pneumoniae RKI 93/10; [15]) was 256 µg/mL. It also gave an MIC (K. pneumoniae RKI 93/10; Table 4, CAMB, n=3) of 128 µg/mL, an MIC [1, 13] of 64 µg/mL and an MIC [1, 14] of 128 µg/mL. The MIC [1, 15] was 128 µg/mL, the MIC ([1]; Table 4, CAMB, n=3) was 64 µg/mL and the MIC (A. baumannii RKI 19/09; [13]) was 4 µg/mL. The MIC (A. baumannii RKI 19/09; [15]) was 16 µg/mL, the MIC (A. baumannii RKI 19/09; Table 4, CAMB, n=3) was 16 µg/mL and the MIC (K. pneumoniae RKI 268/15; Table 4, CAMB, n=3) was 256 µg/mL. For the same substance, the MIC (K. pneumoniae RKI 68/16; Table 4, CAMB, n=3) was 256 µg/mL, the MIC [2, 13] was 16 µg/mL and the MIC [2, 14] was 64 µg/mL. It also gave an MIC [2, 15] of 8 µg/mL, an MIC ([2]; CAMB, 18 h, 37 °C, n = 4) of 32 µg/mL and an MIC ([2]; Table 4, CAMB, n=3) of 32 µg/mL. For the same substance, the MIC ([3]; CAMB, 18 h, 37 °C, n = 4) was >1024 µg/mL, the MIC (Escherichia coli D31; CAMB, 18 h, 37 °C, n = 4) was 16 µg/mL and the MIC [4, 13] was 2 µg/mL. For the same substance, the MIC ([4]; Table 5, CAMB, n=3) was 32 µg/mL, the MIC [5, 13] was 2 µg/mL and the MIC [5, 14] was 32 µg/mL. The MIC [5, 15] was 16 µg/mL, the MIC ([5]; CAMB, 18 h, 37 °C, n = 4) was 32 µg/mL and the MIC ([5]; Table 4, CAMB, n=3) was 32 µg/mL. For the same substance, the MIC ([6]; CAMB, 18 h, 37 °C, n = 4) was >1024 µg/mL, the MIC ([7]; BHI, 48 h, 37 °C, BacTiter-Glo, n = 4) was >1024 µg/mL and the MIC ([8]; CAMB, 18 h, 37 °C, n = 4) was >1024 µg/mL. For the same substance, the MIC ([9]; CAMB, 18 h, 37 °C, n = 4) was >1024 µg/mL, the MIC ([10]; CAMB, 18 h, 37 °C, n = 4) was >1024 µg/mL and the MIC ([11]; CAMB, 18 h, 37 °C, n = 4) was >1024 µg/mL. It also gave an MIC ([12]; CAMB adjusted to 150 mM NaCl) of 256 µg/mL and an MIC ([12]; Table 4, CAMB) of 512 µg/mL.
